The text below walks through data of patent US9540366B2, “Ring-fused heterocyclic compound” (Kyowa Hakko Kirin Co., Ltd., priority 2012, dated 2017).

Assay [1] addresses T1, human Cav3.2 T-type Ca2+ channel (Homo sapiens, UniProt O95180).
T1 construct: expressed in transfected cells; host or cells: KJMGER8 cells (Namalwa cell-derived cell line)
In words: Inhibitory effect for intracellular calcium response via Cav3.2 T-type Ca2+ channels (FLIPR Calcium 3 Assay Kit). The assay is classed as cell-based. For orientation: Calcium flux is commonly read through the fluorescence of an indicator in the cells.

For assay [2], the system named is morphine-induced pruritus mice. Kind of assay: Inhibitory effect for pruritus in morphine-induced pruritus mice. In kind it is in vivo. The conditions noted are these: given 30 minutes or 1 hour before intrathecal morphine, scratching counted for 30 minutes, male ddY mice. As to the method:
Inhibitory Effect for Pruritus in Morphine-Induced Pruritus Mice
Morphine (1 nmol/5 μL, dissolved in physiological saline) or physiological saline was intrathecally administered between the fifth and sixth lumbar vertebrae of male ddY mice using a microsyringe fitted with a 30-gauge injection needle. Mice to which only morphine was administered were referred to as a control group, and mice to which only physiological saline was administered were referred to as a physiological saline-administered group.
The number of scratching behavior with the hind legs which began to be observed immediately after the morphine administration was measured for 30 minutes. Because mice show continuous scratching actions in each scratching behavior, a series of such actions was counted as a single scratching behavior.
Each test compound was administered 30 minutes or 1 hour before the morphine administration. The test compound was suspended in a 0.5% methylcellulose solution and was prepared plural administration solutions of different concentrations, and each of them was orally administered in a volume of 10 mL/kg.

Setting [3] is: human Cav3.2-expressing KJMGER8 cells (Namalwa-derived), calcium response induced by 5 mmol/L CaCl2, 3 μmol/L mibefradil as reference, read-out: IC50 for the human Cav3.2 T-type Ca2+ current.

Where two headings read alike, the source gives them in different places.

T1 sequence (O95180 whole entry): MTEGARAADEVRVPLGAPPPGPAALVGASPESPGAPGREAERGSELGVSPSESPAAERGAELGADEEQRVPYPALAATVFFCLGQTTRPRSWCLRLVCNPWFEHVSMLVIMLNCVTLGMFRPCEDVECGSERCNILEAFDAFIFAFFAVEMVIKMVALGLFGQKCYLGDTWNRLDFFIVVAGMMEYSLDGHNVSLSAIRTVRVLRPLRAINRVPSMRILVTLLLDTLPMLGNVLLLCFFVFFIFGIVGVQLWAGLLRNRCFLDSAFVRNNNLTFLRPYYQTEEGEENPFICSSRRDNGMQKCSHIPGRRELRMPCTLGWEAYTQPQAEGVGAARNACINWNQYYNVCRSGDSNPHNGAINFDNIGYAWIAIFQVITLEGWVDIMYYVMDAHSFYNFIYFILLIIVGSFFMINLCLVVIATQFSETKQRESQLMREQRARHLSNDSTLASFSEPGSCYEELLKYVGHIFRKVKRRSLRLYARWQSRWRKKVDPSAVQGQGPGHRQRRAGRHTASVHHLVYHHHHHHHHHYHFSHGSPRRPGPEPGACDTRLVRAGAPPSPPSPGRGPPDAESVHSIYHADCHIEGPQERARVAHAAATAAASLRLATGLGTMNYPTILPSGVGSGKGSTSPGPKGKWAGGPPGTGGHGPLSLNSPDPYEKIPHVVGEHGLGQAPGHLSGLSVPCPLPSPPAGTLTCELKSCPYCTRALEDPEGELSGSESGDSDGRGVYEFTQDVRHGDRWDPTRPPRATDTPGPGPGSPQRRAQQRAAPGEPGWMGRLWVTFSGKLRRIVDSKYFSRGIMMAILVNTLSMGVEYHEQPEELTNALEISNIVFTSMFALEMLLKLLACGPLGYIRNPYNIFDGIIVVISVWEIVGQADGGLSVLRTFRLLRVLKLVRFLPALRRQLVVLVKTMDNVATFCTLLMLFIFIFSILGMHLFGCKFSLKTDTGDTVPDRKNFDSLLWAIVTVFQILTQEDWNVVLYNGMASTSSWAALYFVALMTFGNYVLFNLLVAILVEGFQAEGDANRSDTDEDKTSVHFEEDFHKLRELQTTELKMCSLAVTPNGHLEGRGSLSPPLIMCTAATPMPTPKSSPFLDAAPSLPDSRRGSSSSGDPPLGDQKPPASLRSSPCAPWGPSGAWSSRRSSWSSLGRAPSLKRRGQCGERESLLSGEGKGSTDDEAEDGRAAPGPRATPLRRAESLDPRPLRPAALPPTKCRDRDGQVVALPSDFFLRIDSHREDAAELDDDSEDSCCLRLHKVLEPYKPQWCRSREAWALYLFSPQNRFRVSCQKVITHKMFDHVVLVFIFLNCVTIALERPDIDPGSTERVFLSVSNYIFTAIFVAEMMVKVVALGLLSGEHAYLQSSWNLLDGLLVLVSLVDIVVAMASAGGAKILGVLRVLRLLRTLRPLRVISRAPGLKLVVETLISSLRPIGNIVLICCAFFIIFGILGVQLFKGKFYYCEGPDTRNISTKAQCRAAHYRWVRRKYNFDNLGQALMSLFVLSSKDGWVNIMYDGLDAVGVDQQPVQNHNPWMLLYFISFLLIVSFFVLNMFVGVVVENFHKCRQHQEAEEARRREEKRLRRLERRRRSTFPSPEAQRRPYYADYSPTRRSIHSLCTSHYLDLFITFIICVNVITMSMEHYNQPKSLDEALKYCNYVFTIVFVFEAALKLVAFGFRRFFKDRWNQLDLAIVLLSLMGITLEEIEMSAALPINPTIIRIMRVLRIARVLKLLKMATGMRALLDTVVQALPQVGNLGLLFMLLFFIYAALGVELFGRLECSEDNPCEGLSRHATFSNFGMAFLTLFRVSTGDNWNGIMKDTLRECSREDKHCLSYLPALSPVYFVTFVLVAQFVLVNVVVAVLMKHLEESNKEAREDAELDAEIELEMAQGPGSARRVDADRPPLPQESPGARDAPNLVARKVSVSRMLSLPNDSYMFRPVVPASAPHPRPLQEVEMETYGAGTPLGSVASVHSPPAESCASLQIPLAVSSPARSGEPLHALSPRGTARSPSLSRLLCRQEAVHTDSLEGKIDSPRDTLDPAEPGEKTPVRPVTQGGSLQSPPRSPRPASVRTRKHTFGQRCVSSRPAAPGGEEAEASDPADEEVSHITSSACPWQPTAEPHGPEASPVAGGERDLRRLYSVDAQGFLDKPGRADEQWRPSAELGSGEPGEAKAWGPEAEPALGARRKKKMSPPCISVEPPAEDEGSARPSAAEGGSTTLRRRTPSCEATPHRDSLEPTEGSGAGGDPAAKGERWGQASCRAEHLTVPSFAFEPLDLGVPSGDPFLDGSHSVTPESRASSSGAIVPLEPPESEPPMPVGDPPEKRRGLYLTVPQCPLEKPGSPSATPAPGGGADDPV

In the case of `CC(F)(F)c1nc2cc(C(=O)NC3CCC(F)(F)CC3)c(Cl)cn2c1CC1CCC(F)(F)CC1` [Compound 15, 6-Chloro-N-(4,4-difluorocyclohexyl)-3-[(4,4-difluorocyclohexyl)methyl]-2-(1,1-difluoroethyl)imidazo[1,2-a]pyridine-7-carboxamide], in assay [1], the IC50 (as a rule, the concentration needed to halve the response being measured) was at most 100 nM. The “inhibition of the increase of the scratching behavior in morphine-induced pruritus mice” value in assay [2] (oral dose of 30 mg/kg or less) is reported as “inhibited the increase of the scratching behavior”. Consider `N#Cc1cc(C(=O)NC2CCOCC2)cc2nc(C(F)(F)F)c(CC3CCC(F)(F)CC3)n12` [Compound 40], for which the IC50 in assay [1] was at most 100 nM. Also, in assay [2] (oral dose of 30 mg/kg or less), the “inhibition of the increase of the scratching behavior in morphine-induced pruritus mice” value is recorded as “inhibited the increase of the scratching behavior”. Turning to `N#Cc1cc(C(=O)NCC2CC2)cc2nc(C(F)(F)F)c(CC3CCC(F)(F)CC3)n12` [Compound 53, 5-Cyano-N-(cyclopropylmethyl)-3-[(4,4-difluorocyclohexyl)methyl]-2-(trifluoromethyl)imidazo[1,2-a]pyridine-7-carboxamide], in assay [1] (setting [3]), the IC50 was at most 100 nM. The “inhibition of the increase of the scratching behavior in morphine-induced pruritus mice” value in assay [2] (oral dose of 30 mg/kg or less) is “inhibited the increase of the scratching behavior”. For the compound `COC(C)(C)CNC(=O)c1cc(C#N)n2c(CC3CCC(F)(F)CC3)c(C(F)(F)F)nc2c1` [Compound 55, 5-Cyano-3-[(4,4-difluorocyclohexyl)methyl]-N-(2-methoxy-2-methylpropyl)-2-(trifluoromethyl)imidazo[1,2-a]pyridine-7-carboxamide], the IC50 in assay [1] was at most 100 nM. The “inhibition of the increase of the scratching behavior in morphine-induced pruritus mice” value in assay [2] (oral dose of 30 mg/kg or less) was “inhibited the increase of the scratching behavior”. Take `O=C(NC1CC2(COC2)C1)c1cc(Cl)n2c(CC3CCC(F)(F)CC3)c(C(F)(F)F)nc2c1` [Compound 129, 5-Chloro-3-[(4,4-difluorocyclohexyl)methyl]-N-(2-oxaspiro[3.3]heptan-6-yl)-2-(trifluoromethyl)imidazo[1,2-a]pyridine-7-carboxamide]: the “inhibition of the increase of the scratching behavior in morphine-induced pruritus mice” value in assay [2] (oral dose of 30 mg/kg or less) is on record as “inhibited the increase of the scratching behavior”. For the compound `COC(C)(C)CNC(=O)c1cc(C#N)n2c(CC3CCC(F)(F)CC3)c(C(C)(F)F)nc2c1` [Compound 164, 5-Cyano-3-[(4,4-difluorocyclohexyl)methyl]-2-(1,1-difluoroethyl)-N-(2-methoxy-2-methylpropyl)imidazo[1,2-a]pyridine-7-carboxamide], the IC50 in assay [1] is at most 100 nM. For the same compound, the “inhibition of the increase of the scratching behavior in morphine-induced pruritus mice” value in assay [2] (oral dose of 10 mg/kg or less) was “inhibited the increase of the scratching behavior”. In the same order, the values of `COC(C)(C)CNC(=O)c1cc2nc(C(F)(F)F)c(CC3CCC(F)(F)CC3)n2c(C#N)c1Cl` [Compound 173, 6-Chloro-5-cyano-3-[(4,4-difluorocyclohexyl)methyl]-N-(2-methoxy-2-methylpropyl)-2-(trifluoromethyl)imidazo[1,2-a]pyridine-7-carboxamide] are at most 100 nM and “inhibited the increase of the scratching behavior”. For the compound `N#CC1(CNC(=O)c2cc(Cl)n3c(CC4CCC(F)(F)CC4)c(C(F)(F)F)nc3c2)CC1` [Compound 176, 5-Chloro-N-[(1-cyanocyclopropyl)methyl]-3-[(4,4-difluorocyclohexyl)methyl]-2-(trifluoromethyl)imidazo[1,2-a]pyridine-7-carboxamide], the IC50 in assay [1] (setting [3]) was at most 100 nM. Besides, in assay [2] (oral dose of 10 mg/kg or less), the “inhibition of the increase of the scratching behavior in morphine-induced pruritus mice” value is reported as “inhibited the increase of the scratching behavior”. For `N#Cc1cc(C(=O)N[C@H]2C[C@@H]3CC[C@H]2O3)cc2nc(C(F)(F)F)c(CC3CCC(F)(F)CC3)n12` [Compound 178, N-[(1R,2S,4S)-7-Oxabicyclo[2.2.1]heptan-2-yl]-5-cyano-3-[(4,4-difluorocyclohexyl)methyl]-2-(trifluoromethyl)imidazo[1,2-a]pyridine-7-carboxamide], in that order: at most 100 nM and “inhibited the increase of the scratching behavior”.

Turning to `CC(C)c1nc2cc(C(=O)N[C@H]3C[C@@H]4CC[C@H]3O4)cc(C#N)n2c1CC1CCC(F)(F)CC1` [Compound 180, N-[(1R,2S,4S)-7-Oxabicyclo[2.2.1]heptan-2-yl]-5-cyano-3-[(4,4-difluorocyclohexyl)methyl]-2-isopropylimidazo[1,2-a]pyridine-7-carboxamide], the IC50 in assay [1] was at most 100 nM. Further, in assay [2] (oral dose of 10 mg/kg or less), the “inhibition of the increase of the scratching behavior in morphine-induced pruritus mice” value was “inhibited the increase of the scratching behavior”. Regarding `O=C(NC1CCOCC1)c1cc2nc(C(F)(F)F)c(CC3CCC(F)(F)CC3)n2c(Cl)c1Cl` [Compound 193], in assay [2] (oral dose of 10 mg/kg or less), the “inhibition of the increase of the scratching behavior in morphine-induced pruritus mice” value is given as “inhibited the increase of the scratching behavior”. On to `CC(C)(C)NC(=O)c1cc(Cl)n2c(CC3CCC(F)(F)CC3)c(C(F)(F)F)nc2c1` [Compound 220, N-tert-Butyl-5-chloro-3-[(4,4-difluorocyclohexyl)methyl]-2-(trifluoromethyl)imidazo[1,2-a]pyridine-7-carboxamide], for which the IC50 in assay [1] was at most 100 nM. Consider `CC(F)(F)c1nc2cc(C(=O)NC3CCOCC3)cc(C#N)n2c1Cc1ccc(Cl)cc1` [Compound 221, 3-(4-Chlorobenzyl)-5-cyano-2-(1,1-difluoroethyl)-N-(tetrahydro-2H-pyran-4-yl)imidazo[1,2-a]pyridine-7-carboxamide], for which the half-inhibitory concentration (IC50) in assay [1] was at most 100 nM. Consider `CC(F)(F)c1nc2cc(C(=O)N[C@H]3C[C@@H]4CC[C@H]3O4)cc(C#N)n2c1Cc1ccc(Cl)cc1` [Compound 222, N-[(1R,2S,4S)-7-Oxabicyclo[2.2.1]heptan-2-yl]-3-(4-chlorobenzyl)-5-cyano-2-(1,1-difluoroethyl)imidazo[1,2-a]pyridine-7-carboxamide], for which the IC50 in assay [1] is at most 100 nM. For `[2H]C([2H])([2H])OC(C)(C)CNC(=O)c1cc(C#N)n2c(Cc3ccc(Cl)cc3)c(C(C)(F)F)nc2c1` [Compound 223, 3-(4-Chlorobenzyl)-5-cyano-2-(1,1-difluoroethyl)-N-(2-methoxy-d3-2-methylpropyl)imidazo[1,2-a]pyridine-7-carboxamide], the IC50 in assay [1] was at most 100 nM. Still for that read-out and setting: as for `Cc1cc(C(=O)NC2CCOCC2)cc2nc(C(C)C)c(Cc3ccc(Cl)cc3)n12` [Compound 224, 3-(4-Chlorobenzyl)-2-isopropyl-5-methyl-N-(tetrahydro-2H-pyran-4-yl)imidazo[1,2-a]pyridine-7-carboxamide], the figure is at most 100 nM.

Consider `CC(C)(C)NC(=O)c1cc(C#N)n2c(CC3CCC(F)(F)CC3)c(C(C)(F)F)nc2c1` [Compound 225, N-tert-Butyl-5-cyano-3-[(4,4-difluorocyclohexyl)methyl]-2-(1,1-difluoroethyl)imidazo[1,2-a]pyridine-7-carboxamide], for which the IC50 in assay [1] was at most 100 nM. With `CC(C)c1nc2cc(C(=O)NC(C)(C)C)cc(C#N)n2c1CC1CCC(F)(F)CC1` [Compound 226, N-tert-Butyl-5-cyano-3-[(4,4-difluorocyclohexyl)methyl]-2-isopropylimidazo[1,2-a]pyridine-7-carboxamide], in assay [1], the IC50 was at most 100 nM. On to `CC(C)(C)NC(=O)c1cc2nc(C(F)(F)F)c(CC3CCC(F)(F)CC3)n2c(Cl)c1Cl` [Compound 227, N-tert-Butyl-5,6-dichloro-3-[(4,4-difluorocyclohexyl)methyl]-2-(trifluoromethyl)imidazo[1,2-a]pyridine-7-carboxamide], for which, in assay [1], the IC50 is at most 100 nM.
